Measurements as given in PubChem BioAssay (NCI).
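Test compounds were applied to cells in 96-well plates for 48 hours at 5 doses. TGI: total growth inhibition.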

Key:
Assay in all cases: NCI anticancer screen, dose series, 48 h
[1] = test system: 786-0 renal
[2] = test system: A498 renal
[3] = test system: A549 NSCLC
[4] = test system: ACHN renal
[5] = test system: CAKI-1 renal
[6] = test system: CCRF-CEM leukemia
[7] = test system: COLO 205 colon
[8] = test system: DLD-1 colon
[9] = test system: DMS 114 small cell lung
[10] = test system: DMS 273 small cell lung
[11] = test system: EKVX NSCLC
[12] = test system: HCC-2998 colon
[13] = test system: HCT-116 colon
[14] = test system: HCT-15 colon
[15] = test system: HL-60(TB) leukemia
[16] = test system: HOP-18 NSCLC
[17] = test system: HOP-62 NSCLC
[18] = test system: HOP-92 NSCLC
[19] = test system: HT29 colon
[20] = test system: IGROV1 ovarian
[21] = test system: KM12 colon
[22] = test system: KM20L2 colon
[23] = test system: LXFL 529 NSCLC
[24] = test system: M14 melanoma
[25] = test system: M19-MEL melanoma
[26] = test system: MALME-3M melanoma
[27] = test system: MOLT-4 leukemia
[28] = test system: NCI-H226 lung
[29] = test system: NCI-H23 lung
[30] = test system: NCI-H460 lung
[31] = test system: NCI-H522 lung
[32] = test system: OVCAR-3 ovarian
[33] = test system: OVCAR-4 ovarian
[34] = test system: OVCAR-5 ovarian
[35] = test system: OVCAR-8 ovarian
[36] = test system: RXF 393 renal
[37] = test system: RXF-631 renal
[38] = test system: SF-268 CNS
[39] = test system: SF-295 CNS
[40] = test system: SF-539 CNS
[41] = test system: SK-MEL-2 melanoma
[42] = test system: SK-MEL-28 melanoma
[43] = test system: SK-MEL-5 melanoma
[44] = test system: SK-OV-3 ovarian
[45] = test system: SN12C renal
[46] = test system: SNB-19 CNS
[47] = test system: SNB-75 CNS
[48] = test system: SNB-78 CNS
[49] = test system: SW-620 colon
[50] = test system: TK-10 renal
[51] = test system: U251 CNS
[52] = test system: UACC-257 melanoma
[53] = test system: UACC-62 melanoma
[54] = test system: UO-31 renal
[55] = test system: XF 498 CNS

Measured: TGI

OC(CCNC12CC3CC(CC(C3)C1)C2)c1ccccc1 (stereo not given)
> 100 µM: all assays above
